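Dose response: 5 concentrations. Exposure: 48 h. Format: 96-well plates. Endpoint: linear interpolation; highest concentration if not reached. GI50 marks 50% less growth. The concentration for full growth arrest is given as TGI.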
What was measured:
Assay in all cases: growth of human tumour cells (NCI), 48 h
EKVX NSCLC = system: EKVX NSCLC
NCI-H23 lung = system: NCI-H23 lung
A549 NSCLC = system: A549 NSCLC
HCT-15 colon = system: HCT-15 colon
NCI-H226 lung = system: NCI-H226 lung
SNB-75 CNS = system: SNB-75 CNS
OVCAR-8 ovarian = system: OVCAR-8 ovarian
NCI-H522 lung = system: NCI-H522 lung
HL-60(TB) leukemia = system: HL-60(TB) leukemia
OVCAR-4 ovarian = system: OVCAR-4 ovarian
HCC-2998 colon = system: HCC-2998 colon
ACHN renal = system: ACHN renal
CAKI-1 renal = system: CAKI-1 renal
SF-539 CNS = system: SF-539 CNS
OVCAR-3 ovarian = system: OVCAR-3 ovarian
HOP-62 NSCLC = system: HOP-62 NSCLC
K-562 leukemia = system: K-562 leukemia
SF-295 CNS = system: SF-295 CNS
MOLT-4 leukemia = system: MOLT-4 leukemia
A498 renal = system: A498 renal
MALME-3M melanoma = system: MALME-3M melanoma
MDA-MB-231 breast = system: MDA-MB-231 breast
NCI/ADR-RES ovarian = system: NCI/ADR-RES ovarian
SW-620 colon = system: SW-620 colon
HT29 colon = system: HT29 colon
RXF 393 renal = system: RXF 393 renal
BT-549 breast = system: BT-549 breast
T-47D breast = system: T-47D breast
M14 melanoma = system: M14 melanoma
LOX IMVI melanoma = system: LOX IMVI melanoma
SNB-19 CNS = system: SNB-19 CNS
CCRF-CEM leukemia = system: CCRF-CEM leukemia
COLO 205 colon = system: COLO 205 colon
NCI-H460 lung = system: NCI-H460 lung
SR leukemia = system: SR leukemia
HCT-116 colon = system: HCT-116 colon
UACC-257 melanoma = system: UACC-257 melanoma
SF-268 CNS = system: SF-268 CNS
TK-10 renal = system: TK-10 renal
KM12 colon = system: KM12 colon
RPMI-8226 leukemia = system: RPMI-8226 leukemia
786-0 renal = system: 786-0 renal
MDA-MB-435 = system: MDA-MB-435
SN12C renal = system: SN12C renal
HOP-92 NSCLC = system: HOP-92 NSCLC
SK-OV-3 ovarian = system: SK-OV-3 ovarian
SK-MEL-28 melanoma = system: SK-MEL-28 melanoma
UACC-62 melanoma = system: UACC-62 melanoma
SK-MEL-2 melanoma = system: SK-MEL-2 melanoma
DU-145 prostate = system: DU-145 prostate
PC-3 prostate = system: PC-3 prostate
MCF7 breast = system: MCF7 breast
HS 578T breast = system: HS 578T breast
OVCAR-5 ovarian = system: OVCAR-5 ovarian
U251 CNS = system: U251 CNS
IGROV1 ovarian = system: IGROV1 ovarian
MDA-MB-468 breast = system: MDA-MB-468 breast
UO-31 renal = system: UO-31 renal
SK-MEL-5 melanoma = system: SK-MEL-5 melanoma

O=C(NNC(=S)NC(=O)c1ccccc1)c1ccc(OCc2nc3ccc(Cl)cc3[nH]2)cc1
GI50 (EKVX NSCLC): 2.12 µM | TGI (EKVX NSCLC): 5.75 µM | GI50 (NCI-H23 lung): 1.78 µM | TGI (NCI-H23 lung): 3.7 µM | GI50 (A549 NSCLC): 1.99 µM | TGI (A549 NSCLC): 4.49 µM | GI50 (HCT-15 colon): 0.567 µM | TGI (HCT-15 colon): 2.13 µM | GI50 (NCI-H226 lung): 2.02 µM | TGI (NCI-H226 lung): 7.82 µM | GI50 (SNB-75 CNS): 1.48 µM | TGI (SNB-75 CNS): 4.78 µM | GI50 (OVCAR-8 ovarian): 2.1 µM | TGI (OVCAR-8 ovarian): 5.07 µM | GI50 (NCI-H522 lung): 3.3 µM | TGI (NCI-H522 lung): 13.4 µM | GI50 (HL-60(TB) leukemia): 2.22 µM | TGI (HL-60(TB) leukemia): 7.24 µM | GI50 (OVCAR-4 ovarian): 2.34 µM | TGI (OVCAR-4 ovarian): 14.8 µM | GI50 (HCC-2998 colon): 1.68 µM | TGI (HCC-2998 colon): 3.35 µM | GI50 (ACHN renal): 2.04 µM | TGI (ACHN renal): 5.82 µM | GI50 (CAKI-1 renal): 2.48 µM | TGI (CAKI-1 renal): 9.45 µM | GI50 (SF-539 CNS): 1.76 µM | TGI (SF-539 CNS): 3.23 µM | GI50 (OVCAR-3 ovarian): 1.85 µM | TGI (OVCAR-3 ovarian): 4.55 µM | GI50 (HOP-62 NSCLC): 1.76 µM | TGI (HOP-62 NSCLC): 3.56 µM | GI50 (K-562 leukemia): 2.79 µM | TGI (K-562 leukemia): > 100 µM | GI50 (SF-295 CNS): 1.27 µM | TGI (SF-295 CNS): 2.98 µM | GI50 (MOLT-4 leukemia): 2.22 µM | TGI (MOLT-4 leukemia): 10.2 µM | GI50 (A498 renal): 1.6 µM | TGI (A498 renal): 4.39 µM | GI50 (MALME-3M melanoma): 1.53 µM | TGI (MALME-3M melanoma): 3.08 µM | GI50 (MDA-MB-231 breast): 1.71 µM | TGI (MDA-MB-231 breast): 3.37 µM | GI50 (NCI/ADR-RES ovarian): 0.396 µM | TGI (NCI/ADR-RES ovarian): 2.55 µM | GI50 (SW-620 colon): 1.99 µM | TGI (SW-620 colon): 4.55 µM | GI50 (HT29 colon): 3.45 µM | TGI (HT29 colon): 13.7 µM | GI50 (RXF 393 renal): 2.32 µM | TGI (RXF 393 renal): 6.67 µM | GI50 (BT-549 breast): 1.54 µM | TGI (BT-549 breast): 3.14 µM | GI50 (T-47D breast): 3.12 µM | TGI (T-47D breast): 18.6 µM | GI50 (M14 melanoma): 1.55 µM | TGI (M14 melanoma): 3.79 µM | GI50 (LOX IMVI melanoma): 1.26 µM | TGI (LOX IMVI melanoma): 2.64 µM | GI50 (SNB-19 CNS): 2.1 µM | TGI (SNB-19 CNS): 6.68 µM | GI50 (CCRF-CEM leukemia): 1.44 µM | TGI (CCRF-CEM leukemia): 10.5 µM | GI50 (COLO 205 colon): 2.66 µM | TGI (COLO 205 colon): 9.34 µM | GI50 (NCI-H460 lung): 1.26 µM | TGI (NCI-H460 lung): 3.6 µM | GI50 (SR leukemia): 2.52 µM | TGI (SR leukemia): 11.7 µM | GI50 (HCT-116 colon): 1.52 µM | TGI (HCT-116 colon): 3.51 µM | GI50 (UACC-257 melanoma): 2.85 µM | TGI (UACC-257 melanoma): 10.5 µM | GI50 (SF-268 CNS): 2.42 µM | TGI (SF-268 CNS): 12 µM | GI50 (TK-10 renal): 4.49 µM | TGI (TK-10 renal): 21.2 µM | GI50 (KM12 colon): 1.89 µM | TGI (KM12 colon): 4.11 µM | GI50 (RPMI-8226 leukemia): 2.83 µM | TGI (RPMI-8226 leukemia): 21.6 µM | GI50 (786-0 renal): 2.05 µM | TGI (786-0 renal): 6.12 µM | GI50 (MDA-MB-435): 1.81 µM | TGI (MDA-MB-435): 4.37 µM | GI50 (SN12C renal): 1.57 µM | TGI (SN12C renal): 3.16 µM | GI50 (HOP-92 NSCLC): 2.18 µM | TGI (HOP-92 NSCLC): 6.26 µM | GI50 (SK-OV-3 ovarian): 2.05 µM | TGI (SK-OV-3 ovarian): 4.89 µM | GI50 (SK-MEL-28 melanoma): 1.65 µM | TGI (SK-MEL-28 melanoma): 3.23 µM | GI50 (UACC-62 melanoma): 1.67 µM | TGI (UACC-62 melanoma): 3.11 µM | GI50 (SK-MEL-2 melanoma): 2.08 µM | TGI (SK-MEL-2 melanoma): 4.95 µM | GI50 (DU-145 prostate): 3.02 µM | TGI (DU-145 prostate): 15.3 µM | GI50 (PC-3 prostate): 1.79 µM | TGI (PC-3 prostate): 4.96 µM | GI50 (MCF7 breast): 2.91 µM | TGI (MCF7 breast): 17.7 µM | GI50 (HS 578T breast): 2.17 µM | TGI (HS 578T breast): 7.3 µM | GI50 (OVCAR-5 ovarian): 1.8 µM | TGI (OVCAR-5 ovarian): 3.93 µM | GI50 (U251 CNS): 1.71 µM | TGI (U251 CNS): 3.46 µM | GI50 (IGROV1 ovarian): 2.18 µM | TGI (IGROV1 ovarian): 5.33 µM | GI50 (MDA-MB-468 breast): 2.52 µM | TGI (MDA-MB-468 breast): 9.45 µM | GI50 (UO-31 renal): 1.39 µM | TGI (UO-31 renal): 4.11 µM | GI50 (SK-MEL-5 melanoma): 1.78 µM | TGI (SK-MEL-5 melanoma): 3.93 µM

From PubChem BioAssay (NCI)
